Experimental data reported in patent US20240139151A1, “COMPOSITION INCLUDING DECURSINOL AS ACTIVE INGREDIENT FOR PREVENTING OR TREATING SMOOTH MUSCLE CELL PROLIFERATIVE DISEASES” (KYUNGSUNG UNIVERSITY INDUSTRY COOPERATION FOUNDATION, priority 2021, published 2024).
pIC50: −log10 of the molar value. Entries after “also recorded” stand apart in the source; their conditions may differ.

Tests used:
[1] = in vitro; details: rat, IC50, concentration at which the growth of the cells is inhibited by 50% (cytotoxicity)
Method: (§1) The vascular smooth cell line A10 was loaded at a density of 1×10^3 cells/ml into 96-well plates and after 16 hours, the medium was replaced with a medium having a concentration of 5.5 mM or 30 mM D-glucose. Subsequently, decursin, decursinol angelate and decursinol were each applied at concentrations of 0, 20, 50, 100, 200, and 500 μM to the cells. IC50, a concentration at which the growth of the cells is inhibited by 50%, and EC100, a concentration which inhibits the growth of cells in a high sugar level environment to a normal cell population, were measured, and therapeutic indices were calculated by dividing IC50 by EC100. […] Then, effects of decursin and decursinol angelate to inhibit the proliferation of A10 cells in high glucose were expressed as EC100. EC100 refers to the concentration at which high glucose-induced proliferation of A10 cells is inhibited to normal glucose levels by the drug.

[2] = tested on: vascular smooth cell line A10; assay: Inhibition of high glucose-induced proliferation of A10 cells (EC100); type: cell-based; details: 30 mM D-glucose, 0-500 μM
Method: as §1

[3] = Cytotoxicity (IC50) on A10 cells; details: rat, A10 vascular smooth muscle cells, IC50, concentration at which the growth of the cells is inhibited by 50% (cytotoxicity), 0-500 μM, cytotoxicity under normal glucose conditions
Method: as §1

[4] = tested on: vascular smooth cell line A10; details: rat
Method: as §1

[5] = Blood pressure safety test in rats after two weeks of oral administration; type: in vivo; details: measured the day after final administration
Description: The present inventors have been studying Angelica gigas Nakai for many years while observing the effect of Angelica gigas Nakai extract on blood pressure. In general, Angelica gigas Nakai is a traditional herb that has been used for food and medicine for a long time because of its excellent hematopoietic, anticancer, antioxidant, and anti-inflammatory actions. However, direct use of the Angelica gigas extract has the problem of inducing high blood pressure according to the preparation thereof. In this Example, the Angelica extracts obtained in Examples 1-1 and 1-2 and 99.9% pure decursinol of the present disclosure were administered to rats and assayed for safety for blood pressure.
Using a blood pressure analyzer (3R229 3 channel rat system, Life Science), rats were measured for blood pressure while being acclimated to blood measurement operation. When the blood pressure analyzer is being operated, laboratory rats are startled by the sound of air pressure and rise in blood pressure. In order to eliminate this effect, after adaptation by repeatedly measuring 5 times a day, the experiment was performed when the blood pressure was kept stable, and the blood pressure was regularly measured every day even during the experiment to adapt the rats to the analyzer. When measuring blood pressure, the head was covered with a handkerchief to block light for stabilization. Fifteen experimental rats were divided into 5 groups of 3 rats for the next administration experiment and measured for blood pressure. A control (physiological saline), the Angelica extracts, and decursinol were each orally administered for two weeks, and the blood pressures measured the next day after the final administration are given in Table 1.

[6] = tested on: vascular smooth muscle cell line A10; assay: Effect of decursinol on high sugar-induced proliferation of A10 cells (cell count); type: cell-based
Method: The effect of decursinol on the high sugar-induced proliferation of A10 cells was investigated. […] Then, each well was treated with 25 μM of solubilized decursinol, and the cells were counted after 1, 2, and 3 days. The results are depicted in FIG. 4.

[7] = tested on: phospho-protein kinase C (p-PKC); assay: Western blotting of phospho-PKC with a pan-phospho-PKC antibody in A10 cells; type: cell-based; details: 30 mM D-glucose, 10 and 25 μM solubilized decursinol, 24 hours
Method: Examination was made to see whether the inhibitory effect of decursinol on high sugar-induced proliferation of A10 cells was associated with PKC. […] Then, each well was treated with 10 and 25 μM of solubilized decursinol and incubated for 24 hours. Western blotting was carried out using a pan-phospho-PKC antibody and the results are depicted in FIG. 5.

[8] = tested on: vascular smooth muscle cell line A10; assay: Cytotoxicity of decursinol, live and dead cell count; type: cell-based; details: live and dead cells counted
Description: In order to examine the cytotoxicity of decursinol, both live and dead cells were counted. After treatment with decursinol, 98% or more of live cells were observed alive.

| Compound | pIC50 [1] | EC100, concentration at which high glucose-induced proliferation of A10 cells is inhibited to normal glucose levels [2] | pIC50 [3] | pIC50 [4] | Diastolic blood pressure ([5]; 0.5 mg/kg) | Systolic blood pressure ([5]; 0.5 mg/kg) | Diastolic blood pressure ([5]; 1.0 mg/kg) | Systolic blood pressure ([5]; 1.0 mg/kg) | Diastolic blood pressure ([5]; 2.0 mg/kg) | Systolic blood pressure ([5]; 2.0 mg/kg) | Diastolic blood pressure ([5]; 5.0 mg/kg) | Systolic blood pressure ([5]; 5.0 mg/kg) | Effect on proliferation of A10 cells at normal sugar concentration ([6]; 5.5 mM D-glucose, 25 μM solubilized decursinol, days 1-3) | Effect on proliferation of A10 cells in high glucose ([6]; 30 mM D-glucose) | Inhibition of proliferation of A10 cells in high glucose ([6]; 30 mM D-glucose, 25 μM solubilized decursinol, day 3) | Expression level of phospho-PKC in high sugar [7] | Live cells after treatment with decursinol [8] |
| --- | --- | --- | --- | --- | --- | --- | --- | --- | --- | --- | --- | --- | --- | --- | --- | --- | --- |
| CC(C)=CC(=O)O[C@H]1Cc2cc3ccc(=O)oc3cc2OC1(C)C [Decursin, decursin] | 4.08 | 7.2 µM |  |  |  |  |  |  |  |  |  |  |  |  |  |  |  |
| C/C=C(/C)C(=O)O[C@H]1Cc2cc3ccc(=O)oc3cc2OC1(C)C [Decursinol angelate, decursinol angelate] |  | 4.4 µM | 3.91 |  |  |  |  |  |  |  |  |  |  |  |  |  |  |
| CC1(C)Oc2cc3oc(=O)ccc3cc2C[C@@H]1O [Decursinol, decursinol] | ≤ 3.30 | 10.1 µM |  | < 3.30 | 91 mmHg | 110 mmHg | 92 mmHg | 110 mmHg | 92 mmHg | 117 mmHg | 90 mmHg | 115 mmHg | did not significantly inhibit; also recorded: not affected | significantly inhibited; also recorded: inhibited cell proliferation in a dose-dependent manner | about 20% | significantly decreased the increased expression level of phospho-PKC in high sugar in a dose-dependent manner | ≥ 98% |
